Results from article PMC12186262 (ACS Chemical Biology, 2025).
Like-named read-outs stand apart in the source and are kept apart here.

Legend:
[1] = biological target: wild-type (WT) His-tagged SARS-CoV-2 SgP RBD (Severe acute respiratory syndrome coronavirus 2, UniProt P0DTC2); type: binding; conditions: for Mean fluorescence intensity (MFI): glycans printed at 100 µM, MFI scaled to positive control = 100, WT RBD 20 µg/mL
[2] = biological target: T1, WT RBD of SARS-CoV-2 SgP (Severe acute respiratory syndrome coronavirus 2, UniProt P0DTC2); type: binding; conditions: read-out: KD (microarray, sigmoidal fit)
[3] = biological target: T1, WT RBD of SARS-CoV-2 SgP; conditions: read-out: KD (solution fluorescence titration); pH 7.4
[4] = microarray, WT RBD, library A1-A19

| SMILES | Mean fluorescence intensity (MFI) [1] | Kd [2] [nM] | other results |
| --- | --- | --- | --- |
| NCCCO[C@@H]1O[C@@H](C(=O)O)[C@@H](O[C@H]2O[C@H](CO)[C@@H](O[C@@H]3O[C@@H](C(=O)O)[C@@H](O[C@H]4O[C@H](CO)[C@@H](O)[C@H](OS(=O)(=O)O)[C@H]4N)[C@H](O)[C@H]3O)[C@H](OS(=O)(=O)O)[C@H]2N)[C@H](O)[C@H]1O [A9] |  |  | Recognition by WT RBD better than the next best molecule (A10) [1, 4]: > 250% |
| NCCCO[C@@H]1O[C@@H](C(=O)O)[C@@H](O[C@H]2O[C@H](CO)[C@@H](O[C@@H]3O[C@@H](C(=O)O)[C@@H](O[C@H]4O[C@H](CO)[C@@H](O)[C@H](OS(=O)(=O)O)[C@H]4N)[C@H](O)[C@H]3OS(=O)(=O)O)[C@H](OS(=O)(=O)O)[C@H]2N)[C@H](O)[C@H]1OS(=O)(=O)O [A13] | lower MFI in comparison to A9 |  |  |
| NOCCOCCO[C@@H]1O[C@@H](C(=O)O)[C@@H](OS(=O)(=O)O)[C@H](O)[C@H]1OS(=O)(=O)O [A16] |  |  | Binding signal relative to closest neighbors [1, 4]: ~3 fold |
| CC(=O)N[C@H]1[C@@H](O[C@H]2[C@H](F)[C@@H](OS(=O)(=O)O)[C@H](OCCCN)O[C@@H]2C(=O)O)O[C@H](COS(=O)(=O)O)[C@@H](O)[C@@H]1OS(=O)(=O)O [B20] | > 30 |  |  |
| NCCCO[C@@H]1O[C@H](C(=O)O)[C@@H](O[C@H]2O[C@H](COS(=O)(=O)O)[C@@H](O)[C@H](OS(=O)(=O)O)[C@H]2NS(=O)(=O)O)[C@H](F)[C@H]1O [B22] | > 30 |  |  |
| NCCCO[C@@H]1O[C@H](C(=O)O)[C@@H](O[C@H]2O[C@H](COS(=O)(=O)O)[C@@H](O)[C@H](OS(=O)(=O)O)[C@H]2NS(=O)(=O)O)[C@H](F)[C@H]1OS(=O)(=O)O [B23] | > 30 |  |  |
| NOCCOCCO[C@@H]1O[C@@H](COS(=O)(=O)O)[C@@H](OS(=O)(=O)O)[C@H](O)[C@H]1OS(=O)(=O)O [B30] |  |  | MFI relative to nonsulfated monosaccharide B24 and 3-O-sulfated B28 ([1]; microarray, WT RBD): 4 fold |
| NOCCOCCO[C@@H]1O[C@@H](COS(=O)(=O)O)[C@@H](O[C@@H]2O[C@@H](COS(=O)(=O)O)[C@@H](OS(=O)(=O)O)[C@H](O)[C@H]2OS(=O)(=O)O)[C@H](O)[C@H]1OS(=O)(=O)O [B32] |  | 243 ± 41 |  |
| NOCCOCCO[C@@H]1O[C@@H](COS(=O)(=O)O)[C@@H](O[C@@H]2O[C@@H](COS(=O)(=O)O)[C@@H](O[C@@H]3O[C@@H](COS(=O)(=O)O)[C@@H](OS(=O)(=O)O)[C@H](O)[C@H]3OS(=O)(=O)O)[C@H](O)[C@H]2OS(=O)(=O)O)[C@H](O)[C@H]1OS(=O)(=O)O [B33] |  | 307 ± 38 |  |
| NOCCOCCO[C@@H]1O[C@@H](COS(=O)(=O)O)[C@@H](O[C@@H]2O[C@@H](COS(=O)(=O)O)[C@@H](O[C@@H]3O[C@@H](COS(=O)(=O)O)[C@@H](O[C@@H]4O[C@@H](COS(=O)(=O)O)[C@@H](OS(=O)(=O)O)[C@H](O)[C@H]4OS(=O)(=O)O)[C@H](O)[C@H]3OS(=O)(=O)O)[C@H](O)[C@H]2OS(=O)(=O)O)[C@H](O)[C@H]1OS(=O)(=O)O [B34] |  | 201 ± 64 | Kd [3]: 61 ± 8 nM |
